Reference: article PMC2729173 (Cancer research, 2009)
Counter-ions that a name gives are not always drawn. Like-named read-outs stand apart in the source and are kept apart here.

Assays:
BCRP = target: T1, BCRP (Homo sapiens, UniProt Q9UNQ0); type: cell-based; settings: for intracellular topotecan lactone concentration: topotecan 500 ng/mL
T1 sequence (Q9UNQ0 1-655): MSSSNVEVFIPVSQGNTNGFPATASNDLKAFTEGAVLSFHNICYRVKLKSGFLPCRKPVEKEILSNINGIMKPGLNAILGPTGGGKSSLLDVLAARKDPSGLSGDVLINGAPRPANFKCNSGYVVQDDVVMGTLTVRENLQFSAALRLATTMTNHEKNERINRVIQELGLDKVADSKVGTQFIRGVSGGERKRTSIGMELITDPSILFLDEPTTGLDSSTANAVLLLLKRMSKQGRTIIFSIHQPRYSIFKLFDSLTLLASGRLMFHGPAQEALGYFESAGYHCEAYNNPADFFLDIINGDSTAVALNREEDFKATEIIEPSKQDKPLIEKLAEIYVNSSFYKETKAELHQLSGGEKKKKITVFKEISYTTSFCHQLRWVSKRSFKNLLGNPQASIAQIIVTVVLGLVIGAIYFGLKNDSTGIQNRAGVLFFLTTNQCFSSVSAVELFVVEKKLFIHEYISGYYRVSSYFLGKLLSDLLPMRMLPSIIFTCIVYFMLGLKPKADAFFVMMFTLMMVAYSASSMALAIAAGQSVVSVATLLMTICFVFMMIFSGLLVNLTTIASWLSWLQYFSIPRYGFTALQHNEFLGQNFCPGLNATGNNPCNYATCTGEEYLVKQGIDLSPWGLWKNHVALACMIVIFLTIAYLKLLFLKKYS

[1] = rat; cited from earlier work
[2] = Intracerebral microdialysis of brain parenchymal ECF; settings: topotecan 4 mg/kg i.v.; for ECF CLin-to-CLout ratio of unbound topotecan lactone: three-compartment model; for Kp: mouse, brain ECF (striatum microdialysate) vs plasma, intravenous, 4 mg/kg, ECF-to-plasma AUC ratio of unbound topotecan lactone (AUCu,ECF/AUCu,plasma), mean ±SD; for topotecan lactone ECF concentrations: Mdr1a/b−/− mice
[3] = Topotecan lactone plasma protein binding; type: in vitro ADME, mice; settings: mouse, unbound fraction of plasma topotecan lactone, mean ±SD
[4] = Intracerebral microdialysis of ventricular CSF; settings: topotecan 4 mg/kg i.v., three-compartment model

CCC(O)(C(=O)O)c1cc2n(c(=O)c1CO)Cc1cc3c(CN(C)C)c(O)ccc3nc1-2 (centres unmarked) [Topotecan carboxylate]
topotecan carboxylate detection in cells (BCRP; pH 6): not detected | difference in intracellular topotecan carboxylate accumulation between Saos2-pcDNA and Saos2-BCRP cells (BCRP; pH 8, data not shown): no difference

CCCNCCOc1ccc(NC(=O)c2c[nH]c3c2C(=O)CCC3)cc1F [CP-615,003]
accumulation in CSF relative to ECF [1]: 7 fold

CC[C@@]1(O)C(=O)OCc2c1cc1n(c2=O)Cc2cc3c(CN(C)C)c(O)ccc3nc2-1 [Topotecan, Topotecan hydrochloride]
ECF CLin-to-CLout ratio of unbound topotecan lactone ([2]; Bcrp1−/− mice): 0.42 ± 0.06 | Kp ([2]; Bcrp1−/−, Bcrp1−/− mice): 0.42 ± 0.06 | ECF CLin-to-CLout ratio of unbound topotecan lactone ([2]; FVB wild-type mice): 0.36 ± 0.06 | Kp ([2]; FVB, Mdr1a/b−/−Bcrp1−/− mice): 0.89 ± 0.07 | topotecan lactone ECF concentrations ([2]; listed as Topotecan lactone): below detectable limits | topotecan lactone ECF concentrations ([2]; listed as topotecan lactone): below the lower limit of detection | ECF CLin-to-CLout ratio of unbound topotecan lactone ([2]; Mdr1a/b−/−Bcrp1−/− mice): 0.89 ± 0.07 | Kp ([2]; Mdr1a/b−/−Bcrp1−/−, Mdr1a/b−/−Bcrp1−/− mice): 0.88 ± 0.07 | fraction unbound ([3]; FVB, wild-type mice): 0.301 | fraction unbound ([3]; Bcrp1−/− mice): 0.309 | fraction unbound ([3]; Mdr1a/b−/− mice): 0.292 | fraction unbound ([3]; Mdr1a/b−/−Bcrp1−/− mice): 0.275 | vCSF CLin-to-CLout ratio of unbound topotecan lactone ([4]; Bcrp1−/− mice): 1.59 ± 0.16 | vCSF CLin-to-CLout ratio of unbound topotecan lactone ([4]; FVB wild-type mice): 3.01 ± 0.15 | vCSF CLin-to-CLout ratio of unbound topotecan lactone ([4]; Mdr1a/b−/− mice): 2.57 ± 0.17 | vCSF CLin-to-CLout ratio of unbound topotecan lactone ([4]; Mdr1a/b−/−Bcrp1−/− mice): 0.86 ± 0.04 | intracellular topotecan lactone concentration (BCRP; Saos2-BCRP cells, 1-min incubation, pH 6): 0.043±0.005 ng/μg protein | intracellular topotecan lactone concentration (BCRP; Saos2-BCRP cells, 30-min incubation, pH 6): 0.026 ± 0.004 ng/µg | intracellular topotecan lactone concentration (BCRP; Saos2-pcDNA control cells, 1-min incubation, pH 6): 0.063±0.01 ng/μg protein | intracellular topotecan lactone concentration (BCRP; Saos2-pcDNA control cells, 30-min incubation, pH 6): 0.039 ± 0.003 ng/µg
